Source: ChEMBL document CHEMBL4828732, “Synthesis and biological evaluation of selective survivin inhibitors derived from the MX-106 hydroxyquinoline scaffold” (Eur J Med Chem, 2021)

What was measured:
MDA-MB-435 = experiment: cells; conditions: Homo sapiens, MDA-MB-435, 72 h
SK-BR-3 = experiment: cells; conditions: Homo sapiens, SK-BR-3, 72 h
MDA-MB-453 = experiment: cells; conditions: Homo sapiens, MDA-MB-453, 72 h
MDA-MB-435/LCC6MDR1 = experiment: cells; conditions: Homo sapiens, MDA-MB-435, 72 h
RPMI-7951 = experiment: cells; conditions: Homo sapiens, RPMI-7951, 72 h
[1] = Resistance index, ratio of IC50 for antiproliferation activity against human MDA-MB-435/LCC6MDR cells to IC50 for antiproliferation activity against human MDA-MB-435 cells assessed as cell growth inhibition measured after 72 hrs by MTS assay; assay type: functional
A-375 = experiment: cells; conditions: Homo sapiens, A-375, 72 h

| IC50 (MDA-MB-435) [nM] | IC50 (SK-BR-3) [nM] | IC50 (MDA-MB-453) [nM] | IC50 (MDA-MB-435/LCC6MDR1) [nM] | IC50 (RPMI-7951) [nM] | IC50 (A-375) [nM] | Compound | Ratio IC50 [1] |
| --- | --- | --- | --- | --- | --- | --- | --- |
| 4700 | 2400 | 2000 | 5100 | 600 | 800 | Oc1c(CN2CCNCC2)cc(Cn2ncc(-c3ccc(Br)cc3)n2)c2cccnc12 | 1.1 |
| 3200 | 3300 | 3300 | 1000 | 700 | 700 | CCc1ccc(-c2cnn(Cc3cc(CN4CCCC4)c(O)c4ncccc34)n2)cc1 | 0.3 |
| 4600 | 4900 | 5900 | 1700 | 2300 | 1100 | CC(C)c1ccc(-c2cnn(Cc3cc(CN4CCCC4)c(O)c4ncccc34)n2)cc1 | 0.4 |
| 4800 | 2700 | 2200 | 1600 | 1300 | 1100 | Oc1c(CN2CCCC2)cc(Cn2ncc(-c3ccsc3)n2)c2cccnc12 | 0.3 |
| 3900 | 2800 | 2200 | 1400 | 900 | 900 | COc1ccc(-c2cnn(Cc3cc(CN4CCCC4)c(O)c4ncccc34)n2)cc1 | 0.3 |
| 2100 | 5700 | 1300 | 200 | 800 | 1000 | CC(C)c1ccc(COCc2cc(Br)c(O)c3ncccc23)cc1 | 0.1 |
| 8900 | 6900 | 3100 | 1300 | 2800 | 2200 | Oc1c(CN2CCCC2)cc(Cn2cnc(-c3ccccc3)c2)c2cccnc12 | 0.1 |
| 1100 | 800 | 600 | 900 | 500 | 600 | CC(C)c1ccc(COCc2cc(-c3ccsc3)c(O)c3ncccc23)cc1 | 0.9 |
| 2200 | 5900 | 2400 | 2200 | 1300 | 1900 | Oc1c(CN2CCCC2)cc(COC2Cc3ccccc3C2)c2cccnc12 | 1 |
| 4100 | 3200 | 3500 | 1100 | 1600 | 800 | Oc1c(CN2CCCC2)cc(Cn2ncc(-c3ccc(C(F)(F)F)cc3)n2)c2cccnc12 | 0.3 |
| 3200 | 2700 | 1800 | 2200 | 600 | 900 | Oc1c(CN2CCCC2)cc(Cn2ncc(-c3ccc(OCc4ccccc4)cc3)n2)c2cccnc12 | 0.7 |
| 2400 | 3000 | 2400 | 900 | 700 | 1000 | Oc1c(CN2CCOCC2)cc(Cn2ncc(-c3ccc(Br)cc3)n2)c2cccnc12 | 0.4 |
| 4100 | 3600 | 4100 | 1100 | 700 | 700 | O=[N+]([O-])c1ccc(-c2cnn(Cc3cc(CN4CCCC4)c(O)c4ncccc34)n2)cc1 | 0.3 |
| 2000 | 2900 | 2900 | 700 | 600 |  | Cc1ccc(-c2cnn(Cc3cc(CN4CCCC4)c(O)c4ncccc34)n2)cc1 | 0.4 |
| 1900 | 1300 | 800 | 3000 | 600 | 800 | COc1ccc(-c2cc(COCc3ccc(C(C)C)cc3)c3cccnc3c2O)cc1 | 1.6 |
| 5900 | 6000 | 4100 | 1800 | 800 | 1000 | N#Cc1ccc(-c2cnn(Cc3cc(CN4CCCC4)c(O)c4ncccc34)n2)cc1 | 0.3 |
| 1900 | 5700 | 4400 | 1200 | 1300 | 900 | CC(C)c1ccc(COCc2cc(-c3ccc(C(F)(F)F)cc3)c(O)c3ncccc23)cc1 | 0.6 |
| 1800 | 3300 | 1700 | 1000 | 1100 | 700 | Cc1cccc(-c2cc(COCc3ccc(C(C)C)cc3)c3cccnc3c2O)c1 | 0.6 |
| 1800 | 1600 | 900 | 2300 | 700 | 800 | Cc1ccc(-c2cc(COCc3ccc(C(C)C)cc3)c3cccnc3c2O)cc1 | 1.3 |
| 1200 | 3100 | 1700 | 1000 | 700 | 800 | CC(C)c1ccc(COCc2cc(-c3ccnc4ccccc34)c(O)c3ncccc23)cc1 | 0.8 |
| 3300 | 3900 |  | 1300 | 800 | 1000 | Oc1c(CN2CCCC2)cc(COC2CCc3ccccc3C2)c2cccnc12 (configuration not stated) | 0.4 |
| 5000 | 4000 | 2900 | 600 | 3100 | 2000 | Oc1c(CN2CCCC2)cc(Cn2ncc(-c3ccccc3)n2)c2cccnc12 | 0.1 |
|  |  |  | > 1000 |  |  | COCC[n+]1c2c(n(Cc3cnccn3)c1C)C(=O)c1ccccc1C2=O.[Br-] [SEPANTRONIUM BROMIDE] | >425 |
| 3100 | 4200 | 6300 | 1600 | 2100 | 900 | Oc1c(CN2CCCCCC2)cc(Cn2ncc(-c3ccc(C(F)(F)F)cc3)n2)c2cccnc12 | 0.5 |
| 3500 | 2300 | 1600 | 2100 | 1100 | 1000 | CC(C)c1ccc(COCc2cc(CN3CCCC3)c(O)c3ncccc23)cc1 | 0.6 |
| 3800 | 4000 | 6200 | 1700 | 1900 | 1000 | CCN(CC)Cc1cc(Cn2ncc(-c3ccc(C(F)(F)F)cc3)n2)c2cccnc2c1O | 0.5 |
| 2400 | 3000 | 3100 | 500 | 700 | 700 | Oc1c(CN2CCCC2)cc(Cn2ncc(-c3ccccc3Br)n2)c2cccnc12 | 0.2 |
